Counter-ions that a name gives are not always drawn.
target: human TYK2 (JH2domain-pseudokinase) (Homo sapiens (Human), UniProt P29597); assay: TYK2 JH2 Domain Binding Assay (KINOMEscan competition binding); conditions: KINOMEscan; 11-point 3-fold dilution, top concentration 30,000 nM; Kd measurements in duplicate; read-out: TYK JH2 (Kd)
Procedure: Binding constants for compounds disclosed herein may be determined by the KINOMEscan® assay developed by DiscoveRx. KINOMEscan® is based on a competition binding assay that quantitatively measures the ability of a compound to compete with an immobilized, active-site directed ligand. The assay is performed by combining three components: DNA-tagged kinase; immobilized ligand; and a test compound. The ability of the test compound to compete with the immobilized ligand is measure via quantitative PCR of the DNA tag.
Binding constants for compounds disclosed herein against the JH2 domain are determined by the following protocol for a KINOMEscan® assay (DiscoveRx). A fusion protein of a partial length construct of human TYK2 (JH2domain-pseudokinase) (amino acids G556 to D888 based on reference sequence NP 003322.3) and the DNA binding domain of NFkB is expressed in transiently transfected HEK293 cells. From these HEK 293 cells, extracts are prepared in M-PER extraction buffer (Pierce) in the presence of Protease Inhibitor Cocktail Complete (Roche) and Phosphatase Inhibitor Cocktail Set II (Merck) per manufacturers' instructions. The TYK2 (JH2domain-pseudokinase) fusion protein is labeled with a chimeric double-stranded DNA tag containing the NFkB binding site (5′-GGGAATTCCC-3′) fused to an amplicon for qPCR readout, which is added directly to the expression extract (the final concentration of DNA-tag in the binding reaction is 0.1 nM).
Streptavidin-coated magnetic beads (Dynal M280) are treated with a biotinylated small molecule ligand for 30 minutes at room temperature to generate affinity resins for the binding assays. The liganded beads are blocked with excess biotin and washed with blocking buffer (SeaBlock (Pierce), 1% BSA, 0.05% Tween 20, 1 mM DTT) to remove unbound ligand and to reduce nonspecific binding.
Extracts are used directly in binding assays without any enzyme purification steps at a >10,000-fold overall stock dilution (final DNA tagged enzyme concentration<0.1 nM). Extracts are loaded with DNA-tag and diluted into the binding reaction in a two-step process. First extracts are diluted 1:100 in 1× binding buffer (PBS/0.05% Tween 20/10 mM DTT/0.1% BSA/[…] sonicated salmon sperm DNA) containing 10 nM DNA-tag. This dilution is allowed to equilibrate at room temperature for 15 minutes and then subsequently diluted 1:100 in 1× binding buffer. Test compounds are prepared as 111× stocks in 100% DMSO. Kds are determined using an 11-point 3-fold compound dilution series with three DMSO control points. All compounds for Kd measurements are distributed by acoustic transfer (non-contact dispensing) in 100% DMSO. The compounds are then diluted directly into the assays such that the final concentration of DMSO is 0.9%. All reactions performed in polypropylene 384-well plates. Each is a final volume of 0.02 mL. Assays are incubated with shaking for 1 hour at room temperature. Then the beads are pelleted and washed with wash buffer (lx PBS, 0.05% Tween 20) to remove displaced kinase and test compound. The washed beads are re-suspended in elution buffer (lx PBS, 0.05% Tween 20, 0.5 μM non-biotinylated affinity ligand) and incubated at room temperature with shaking for 30 minutes. The kinase concentration in the eluates is measured by qPCR. qPCR reactions are assembled by adding 2.5 μL of kinase eluate to 7.5 μL of qPCR master mix containing 0.15 μM amplicon primers and 0.15 μM amplicon probe. The qPCR protocol consists of a 10-minute hot start at 95° C., followed by 35 cycles of 95° C. for 15 seconds, 60° C. for 1 minute.
Test compounds are prepared as 111× stocks in 100% DMSO. Kds are determined using an 11-point 3-fold compound dilution series with three DMSO control points. All compounds for Kd measurements are distributed by acoustic transfer (non-contact dispensing) in 100% DMSO. The compounds are then diluted directly into the assays such that the final concentration of DMSO is 0.9%. […]

human TYK2 (JH2domain-pseudokinase), sequence (P29597 556-888): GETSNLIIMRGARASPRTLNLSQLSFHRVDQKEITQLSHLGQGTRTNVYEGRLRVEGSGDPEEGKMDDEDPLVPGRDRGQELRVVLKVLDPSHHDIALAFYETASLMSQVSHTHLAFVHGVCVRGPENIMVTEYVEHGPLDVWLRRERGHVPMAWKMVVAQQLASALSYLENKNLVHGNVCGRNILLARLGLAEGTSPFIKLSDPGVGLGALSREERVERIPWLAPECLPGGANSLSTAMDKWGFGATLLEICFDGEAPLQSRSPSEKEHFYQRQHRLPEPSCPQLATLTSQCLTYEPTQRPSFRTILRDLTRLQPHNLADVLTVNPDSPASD

| Compound | Kd [nM] |
| --- | --- |
| COc1ccccc1Nc1nc(N2CCCN(C(=O)OC(C)(C)C)CC2)ncc1C(N)=O [Compound 41, Tert-Butyl 4-(5-carbamoyl-4-((2-methoxyphenyl)amino)pyrimidin-2-yl)-1,4-diazepane-1-carboxylate] | 19000 |
| COc1ccccc1Nc1nc(N2CCNCC2C)ncc1C(N)=O (centres unmarked) [Compound 42, 4-((2-methoxyphenyl)amino)-2-(2-methylpiperazin-1-yl)pyrimidine-5-carboxamide hydrochloride] | 3300 |
| COc1ccccc1Nc1nc(N2CCN(C(=O)OC(C)(C)C)CC2C)ncc1C(N)=O (centres unmarked) [Compound 43, Tert-Butyl 4-(5-carbamoyl-4-((2-methoxyphenyl)amino)pyrimidin-2-yl)-3-methylpiperazine-1-carboxylate] | 7500 |
| COc1ccccc1Nc1nc(N2CCC(C(=O)O)CC2)ncc1C(N)=O [Compound 44, 1-(5-carbamoyl-4-((2-methoxyphenyl)amino)pyrimidin-2-yl)piperidine-4-carboxylic Acid] | 2400 |
| CCOC(=O)C1CCN(c2ncc(C(N)=O)c(Nc3ccccc3OC)n2)CC1 [Compound 45, Ethyl 1-(5-carbamoyl-4-((2-methoxyphenyl)amino)pyrimidin-2-yl)piperidine-4-carboxylate] | 200 |
| NC(=O)c1cnc(N2CCCNCC2)nc1Nc1ccc(C2CC2)nc1 [Compound 46, 4-((6-cyclopropylpyridin-3-yl)amino)-2-(1,4-diazepan-1-yl)pyrimidine-5-carboxamide Hydrochloride] | 6600 |
| CC(C)(C)OC(=O)N1CCCN(c2ncc(C(N)=O)c(Nc3ccc(C4CC4)nc3)n2)CC1 [Compound 47, Tert-Butyl 4-(S-carbamoyl-4-((6-cyclopropylpyridin-3-yl)amino)pyrimidin-2-yl)-1,4-diazepane-1-carboxylate] | 6700 |
| CNC(=O)C1CN(c2ncc(C(N)=O)c(Nc3cccc(-c4ncc(F)cn4)c3OC)n2)C1 [Compound 48, 4-((3-(5-fluoropyrimidin-2-yl)-2-methoxyphenyl)amino)-2-(3-(methylcarbamoyl)azetidin-1-yl)pyrimidine-5-carboxamide] | 0.5 |
| CNC(=O)c1cnc(N2CC(C(=O)NC)C2)nc1Nc1cccc(-c2ncc(F)cn2)c1OC [Compound 49, 4-((3-(5-fluoropyrimidin-2-yl)-2-methoxyphenyl)amino)-N-methyl-2-(3-(methylcarbamoyl)azetidin-1-yl)pyrimidine-5-carboxamide] | 2.3 |
| CNC(=O)C1CN(c2ncc(C(N)=O)c(Nc3ccc(C4CC4)nc3)n2)C1 [Compound 50, 4-((6-cyclopropylpyridin-3-yl)amino)-2-(3-(methylcarbamoyl)azetidin-1-yl)pyrimidine-5-carboxamide] | 110 |
| CNC(=O)c1cnc(N2CC(C(=O)NC)C2)nc1Nc1ccc(C2CC2)nc1 [Compound 51, 4-((6-cyclopropylpyridin-3-yl)amino)-N-methyl-2-(3-(methylcarbamoyl)azetidin-1-yl)pyrimidine-5-carboxamide] | 1500 |
| CNC(=O)[C@H]1CCN(c2ncc(C(N)=O)c(Nc3cccc(-c4ncc(F)cn4)c3OC)n2)C1 [Compound 52, (S)-4-((3-(5-fluoropyrimidin-2-yl)-2-methoxyphenyl)amino)-2-(3-(methylcarbamoyl)pyrrolidin-1-yl)pyrimidine-5-carboxamide] | 1.6 |
| CNC(=O)[C@@H]1CCN(c2ncc(C(N)=O)c(Nc3cccc(-c4ncc(F)cn4)c3OC)n2)C1 [Compound 53, (R)-4-((3-(5-fluoropyrimidin-2-yl)-2-methoxyphenyl)amino)-2-(3-(methylcarbamoyl)pyrrolidin-1-yl)pyrimidine-5-carboxamide] | 0.11 |
| O=C(NO)c1cnc(N2CCCC2)nc1Nc1ccc(C2CC2)nc1 [Compound 54, 4-((6-cyclopropylpyridin-3-yl)amino)-N-hydroxy-2-(pyrrolidin-1-yl)pyrimidine-5-carboxamide] | 160 |
